Laboratory results as given in US20250281464A1, “TREATMENT OF PATHOGENIC NEISSERIA SP. INFECTION WITH TRIAZOLE ANTIFUNGAL AGENTS” (Virginia Tech Intellectual Properties, Inc., priority 2022, published 2025).
Converted amounts (≈) assume the structure as drawn. Read-outs that look alike come from different tables or passages of the source.

Columns and labels:
L. johnsonii = assay: MIC against commensal vaginal Lactobacillus strains; type: cell-based, Lactobacillus johnsonii; details: for MIC Range: Table 6, L. johsonii (2 strains)
Excerpt: (§1) N. gonorrhoeae pathogenesis greatly depends on colonization of the reproductive tract. One of the natural barriers of such colonization is an intact healthy microbiome. Species of lactobacilli present in the genitourinary tract play a significant role in hindering colonization by Neisseria(1).
(§2) A healthy vaginal microbiome that is dominated by Lactobacillus spp. is less susceptible to N. gonorrhoeae infection and other sexually transmitted diseases (STDs). […] We tested the activity of azoles against important members of healthy vaginal microbiota that inhibit N. gonorrhoeae colonization.

N. gonorrhoeae isolates = assay: MIC against panel of N. gonorrhoeae clinical isolates; type: cell-based, Neisseria gonorrhoeae; details: for MIC50 / MIC90: Neisseria gonorrhoeae; for MIC50: read-out: MIC50; for MIC90: read-out: MIC90
Lactobacillus casei = assay: MIC against normal gut microbiota; type: cell-based; details: Lactobacillus casei (1 strain)
Excerpt: (§3) Disrupting the intestinal microbiota using broad-spectrum antimicrobial therapy increases the susceptibility of hosts to C. difficile colonization.

[1] = MIC against normal gut microbiota; type: cell-based
Excerpt: as §3

Lactobacillus rhamnosus = assay: MIC against normal gut microbiota; type: cell-based; details: Lactobacillus rhamnosus (1 strain)
Excerpt: as §3

Enterococcus faecalis = assay: MIC against normal gut microbiota; type: cell-based; details: Enterococcus faecalis (1 strain)
Excerpt: as §3

Bacteroides fragilis = assay: MIC against normal gut microbiota; type: cell-based; details: Bacteroides fragilis (4 strains)
Excerpt: as §3

Enterococcus faecium = assay: MIC against normal gut microbiota; type: cell-based; details: Enterococcus faecium (1 strain)
Excerpt: as §3

Escherichia coli = assay: MIC against normal gut microbiota; type: cell-based; details: Escherichia coli (1 strain)
Excerpt: as §3

Bacteroides dorei = assay: MIC against normal gut microbiota; type: cell-based; details: Bacteroides dorei (2 strains)
Excerpt: as §3

[2] = test system: Bifidobacterium angulatum; assay: MIC against normal gut microbiota; type: cell-based; details: Bifidobacterium angulatum (1 strain)
Excerpt: as §3

Lactobacillus brevis = assay: MIC against normal gut microbiota; type: cell-based; details: Lactobacillus brevis (1 strain)
Excerpt: as §3

Staphylococcus aureus = assay: MIC against normal gut microbiota; type: cell-based; details: Staphylococcus aureus (1 strain)
Excerpt: as §3

L. crispatus = assay: MIC against commensal vaginal Lactobacillus strains; type: cell-based, Lactobacillus crispatus; details: for MIC Range: Table 6, L. crispatus (3 strains); for MIC: Lactobacillus crispatus
Excerpt: as §1, §2

L. jensenii = assay: as above; type: cell-based, Lactobacillus jensenii; details: for MIC Range: Table 6, L. jensenii (7 strains); for MIC: Lactobacillus jensenii
Excerpt: as §1, §2

L. gasseri = assay: as above; type: cell-based, Lactobacillus gasseri; details: for MIC Range: Table 6, L. gasseri (4 strains); for MIC: Lactobacillus gasseri
Excerpt: as §1, §2

[3] = test system: commensal vaginal lactobacilli strains; assay: MIC against all commensal vaginal Lactobacillus strains tested; type: cell-based, Lactobacillus spp.; details: all species/strains of Lactobacillus tested (Example 2); read-out: MIC
Excerpt: as §1, §2

N. lactamica = assay: MIC against Neisseria spp.; type: cell-based; details: N. lactamica (1 strain)
Excerpt: (§4) Intrigued by the specificity and potent activity of azoles against N. gonorrhoeae, we evaluated the extent of the azoles' antibacterial activity against other Neisseria species (Table 8).

N. mucosa = assay: MIC against Neisseria spp.; type: cell-based; details: N. mucosa (1 strain)
Excerpt: as §4

N. flavescens = assay: MIC against Neisseria spp.; type: cell-based; details: N. flavescens (1 strain)
Excerpt: as §4

N. gonorrhoeae = assay: Post-antibiotic effect (PAE) against N. gonorrhoeae; type: cell-based, Neisseria gonorrhoeae; details: 1 h exposure at 10×MIC
Excerpt: Determining the PAE of a new antimicrobial is an important step for dosing and has clinical importance.

N. meingitidis = assay: MIC against Neisseria spp.; type: cell-based, Neisseria meningitidis; details: N. meingitidis (5 strains)
[4] = Table 1, 104 N. gonorrhoeae isolates
[5] = Table 3, 103 N. gonorrhoeae isolates with different resistance profiles
[6] = Bacteroides adolescentis (2 strains)

## O=c1ccc2ncc(=O)n3c2n1C[C@H]3CN1CCC(NCc2cc3c(cn2)OCCC3)CC1 [Gepotidacin]
L. johnsonii
  MIC Range: ≤1 µg/mL
N. gonorrhoeae isolates; [4]
  MIC50: 0.25 µg/mL (≈ 0.557 µM)
  MIC90: 0.5 µg/mL (≈ 1.11 µM)
  MIC Range: 0.03 to 8 µg/mL
N. gonorrhoeae isolates; [5]
  MIC50: 0.5 µg/mL (≈ 1.11 µM)
  MIC90: 1 µg/mL (≈ 2.23 µM)
  MIC Range: 0.03 to 8 µg/mL
Lactobacillus casei
  MIC Range: 0.25 µg/mL (≈ 0.557 µM)
[1]; [6]
  MIC Range: <0.125 µg/mL
[1]; Bacteroides breve (2 strains)
  MIC Range: <0.125 µg/mL
[1]; Bacteroides longum (2 strains)
  MIC Range: 0.5 µg/mL (≈ 1.11 µM)
Lactobacillus rhamnosus
  MIC Range: 0.5 µg/mL (≈ 1.11 µM)
Enterococcus faecalis
  MIC Range: 1 µg/mL (≈ 2.23 µM)
Bacteroides fragilis
  MIC Range: 0.25 to 2 µg/mL
Enterococcus faecium
  MIC Range: 2 µg/mL (≈ 4.46 µM)
Escherichia coli
  MIC Range: 0.125 µg/mL (≈ 0.279 µM)
Bacteroides dorei
  MIC Range: 0.125 µg/mL (≈ 0.279 µM)
[2]
  MIC Range: 0.125 µg/mL (≈ 0.279 µM)
Lactobacillus brevis
  MIC Range: 0.5 µg/mL (≈ 1.11 µM)
Staphylococcus aureus
  MIC Range: 0.25 µg/mL (≈ 0.557 µM)
L. crispatus
  MIC Range: ≤1 µg/mL
L. jensenii
  MIC Range: ≤1 µg/mL
L. gasseri
  MIC Range: ≤1 µg/mL
[3]
  MIC: < 1 µg/mL

## CCC(C)n1ncn(-c2ccc(N3CCN(c4ccc(OCC5COC(Cn6cncn6)(c6ccc(Cl)cc6Cl)O5)cc4)CC3)cc2)c1=O (stereo not drawn) [Itraconazole]
N. lactamica
  MIC Range: 4 µg/mL (≈ 5.67 µM)
N. mucosa
  MIC Range: 64 µg/mL (≈ 90.7 µM)
N. flavescens
  MIC Range: 64 µg/mL (≈ 90.7 µM)
L. johnsonii; Lactobacillus johnsonii, L. johnsonii HM-643
  MIC: > 256 µg/mL
L. johnsonii
  MIC Range: ≥256 µg/mL
N. gonorrhoeae isolates; [4]
  MIC50: 1 µg/mL (≈ 1.42 µM)
  MIC90: 2 µg/mL (≈ 2.83 µM)
  MIC Range: 0.03 to 4 µg/mL
N. gonorrhoeae isolates; [5]
  MIC50: 1 µg/mL (≈ 1.42 µM)
  MIC90: 2 µg/mL (≈ 2.83 µM)
  MIC Range: 0.03 to 8 µg/mL
Lactobacillus casei
  MIC Range: >256 µg/mL
[1]; [6]
  MIC Range: >256 µg/mL
[1]; Bacteroides breve (2 strains)
  MIC Range: >256 µg/mL
[1]; Bacteroides longum (2 strains)
  MIC Range: >256 µg/mL
Lactobacillus rhamnosus
  MIC Range: >256 µg/mL
Enterococcus faecalis
  MIC Range: >256 µg/mL
Bacteroides fragilis
  MIC Range: >256 µg/mL
Enterococcus faecium
  MIC Range: >256 µg/mL
Escherichia coli
  MIC Range: >256 µg/mL
Bacteroides dorei
  MIC Range: >256 µg/mL
[2]
  MIC Range: >256 µg/mL
Lactobacillus brevis
  MIC Range: >256 µg/mL
Staphylococcus aureus
  MIC Range: >256 µg/mL
L. crispatus; L. crispatus HM-103
  MIC: > 256 µg/mL
L. crispatus; L. crispatus HM-371
  MIC: > 256 µg/mL
L. crispatus; L. crispatus HM-638
  MIC: > 256 µg/mL
L. crispatus
  MIC Range: ≥256 µg/mL
L. jensenii; L. jensenii HM-105
  MIC: > 256 µg/mL
L. jensenii; L. jensenii HM-372
  MIC: > 256 µg/mL
L. jensenii; L. jensenii HM-374
  MIC: > 256 µg/mL
L. jensenii; L. jensenii HM-639
  MIC: > 256 µg/mL
L. jensenii; L. jensenii HM-640
  MIC: > 256 µg/mL
L. jensenii; L. jensenii HM-645
  MIC: > 256 µg/mL
L. jensenii; L. jensenii HM-646
  MIC: > 256 µg/mL
L. jensenii
  MIC Range: ≥256 µg/mL
L. gasseri; L. gasseri HM-407
  MIC: > 256 µg/mL
L. gasseri; L. gasseri HM-642
  MIC: > 256 µg/mL
L. gasseri; L. gasseri HM-644
  MIC: > 256 µg/mL
L. gasseri; L. gasseri HM-647
  MIC: > 256 µg/mL
L. gasseri
  MIC Range: ≥256 µg/mL
N. gonorrhoeae; strain FA 1090
  PAE: 4 h
N. gonorrhoeae; strain WHO P
  PAE: 4 h
N. gonorrhoeae; strain WHO Y
  PAE: 4 h
N. meingitidis
  MIC Range: 0.125 to 1 µg/mL
